Laboratory results: ChEMBL document CHEMBL1201862, “PubChem BioAssay data set” (2004)
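Dose response: 5 concentrations. Exposure: 48 h. Format: 96-well plates. Endpoint: linear interpolation; highest concentration if not reached. The concentration for 50% growth inhibition is given as GI50.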 The source made the active and inactive calls. Cut-off read from the data, not from the text of the source: active = GI50 up to about 1.1 µM and inactive = higher.

Experiments:
Test in all cases: inhibition of tumour cell growth, NCI panel, 48 h
[1] = test system: A549
[2] = test system: MDA-MB-231
[3] = test system: OVCAR-5
[4] = test system: IGROV-1
[5] = test system: OVCAR-8
[6] = test system: HOP-92
[7] = test system: MDA-N
[8] = test system: TK-10
[9] = test system: PC-3
[10] = test system: NCI/ADR-RES
[11] = test system: LOX IMVI
[12] = test system: SR
[13] = test system: COLO 205
[14] = test system: NCI-H23
[15] = test system: SK-MEL-2
[16] = test system: RPMI-8226
[17] = test system: SK-MEL-5
[18] = test system: NCI-H226
[19] = test system: SK-OV-3
[20] = test system: RXF 393

Measured: GI50

CCOC(=O)C1C(c2ccc(OC)cc2)c2c(n[nH]c2O)CC1(O)OCC (stereo unspecified)
inactive: [1] > 100 µM | [2] > 100 µM | [3] > 100 µM | [4] > 100 µM | [5] > 100 µM | [6] > 100 µM | [7] > 100 µM | [8] > 100 µM | [9] > 100 µM | [10] > 100 µM | [11] > 100 µM | [12] > 100 µM | [13] > 100 µM | [14] > 100 µM | [15] > 100 µM | [16] > 100 µM | [17] > 100 µM

CC(=N/NC(=S)N1CCCCC1)/C(C)=N\NC(=S)N1CCCCC1
inactive: [1] 1.73 µM | [2] 2 µM | [3] 1.78 µM | [18] 1.57 µM | [4] 1.58 µM | [5] 2.12 µM | [6] 1.48 µM | [7] 2.47 µM | [8] 1.77 µM | [19] 1.83 µM | [9] 1.86 µM | [10] 2.42 µM | [11] 3.15 µM | [13] 1.95 µM | [14] 2.13 µM | [15] 1.97 µM | [16] 2.19 µM | [17] 1.57 µM | [20] 1.59 µM

CC1(C)O[C@H]2[C@@H]3N=C(c4ccccc4)O[C@@H]3C=C[C@H]2O1
inactive: [1] > 100 µM | [2] > 100 µM | [3] > 100 µM | [18] > 100 µM | [4] > 100 µM | [5] > 100 µM | [6] 83.2 µM | [7] > 100 µM | [8] > 100 µM | [19] > 100 µM | [9] > 100 µM | [10] > 100 µM | [11] > 100 µM | [12] > 100 µM | [13] > 100 µM | [14] > 100 µM | [15] > 100 µM | [16] > 100 µM | [17] > 100 µM

NC12CC3C4CC5(N)CC3C(C1)C(C5)C4C2
inactive: [1] > 100 µM | [2] > 100 µM | [3] > 100 µM | [18] > 100 µM | [4] > 100 µM | [5] > 100 µM | [6] > 100 µM | [7] > 100 µM | [8] > 100 µM | [19] > 100 µM | [9] > 100 µM | [10] > 100 µM | [11] > 100 µM | [13] > 100 µM | [14] > 100 µM | [15] > 100 µM | [17] > 100 µM | [20] > 100 µM

Cc1ccc(N2C(=O)C=C(C3=C(O)C(=O)N(c4ccc(C)cc4)C3=O)C2=O)cc1
inactive: [1] > 100 µM | [2] > 100 µM | [3] > 100 µM | [18] > 100 µM | [4] > 100 µM | [5] > 100 µM | [6] 46.5 µM | [7] > 100 µM | [8] > 100 µM | [19] > 100 µM | [9] > 100 µM | [10] > 100 µM | [11] > 100 µM | [12] > 100 µM | [13] > 100 µM | [14] > 100 µM | [16] > 100 µM | [17] > 100 µM

Cn1c(=O)cc(NNc2ccc(Br)cc2)[nH]c1=O
inactive: [1] 13.9 µM | [2] 14.6 µM | [3] 13.4 µM | [18] 18.2 µM | [4] 11.1 µM | [5] 19.1 µM | [6] 13.9 µM | [7] 14.7 µM | [8] 20.3 µM | [9] 10 µM | [10] 31.1 µM | [11] 2.11 µM | [12] 3.43 µM | [13] 2.58 µM | [16] 6 µM | [17] 16.6 µM

O=C(NCc1ccccc1)c1nn[nH]c1O
inactive: [1] > 100 µM | [2] > 100 µM | [3] > 100 µM | [18] > 100 µM | [4] > 100 µM | [5] > 100 µM | [7] > 100 µM | [8] > 100 µM | [19] > 100 µM | [9] > 100 µM | [10] > 100 µM | [13] > 100 µM | [14] > 100 µM | [15] > 100 µM | [16] > 100 µM | [17] > 100 µM | [20] > 100 µM

COc1cccc(-c2nc(O)c3ccccc3n2)c1OC
inactive: [1] > 100 µM | [2] 74.3 µM | [3] > 100 µM | [18] > 100 µM | [4] > 100 µM | [5] > 100 µM | [7] > 100 µM | [19] > 100 µM | [9] > 100 µM | [10] > 100 µM | [12] > 100 µM | [13] > 100 µM | [14] > 100 µM | [15] > 100 µM | [16] 2.99 µM | [17] > 100 µM | [20] > 100 µM
